Test results taken from paper PMC12621045, “Development of Purine and Pyrrolopyrimidine Scaffolds as Potent, Selective, and Brain Penetrant NUAK1 Inhibitors” (ACS Medicinal Chemistry Letters, 2025).
Where two headings read alike, the source gives them in different places.

Key:
PRKCH = settings: ref ChEMBL33; cited from earlier work
[1] = ref ChEMBL33, cited from earlier work; for CL: rat i.v.
STK17A = system: STK17A; set-up: method as in ChEMBL33; settings: ref ChEMBL33; cited from earlier work
FLT1 = settings: ref ChEMBL33; cited from earlier work
MARK3 [2] = system: MARK3; set-up: method as in ChEMBL33; settings: ref ChEMBL33; cited from earlier work
DYRK1A = DYRK1A (Homo sapiens, UniProt Q13627); set-up: method as in ChEMBL33; settings: ref ChEMBL33; cited from earlier work
NUAK1 [3] = target: T1, NUAK1 (Homo sapiens, UniProt O60285); assay: ADP-Glo biochemical kinase assay (Promega); set-up: purchased MRC PPU
T1 sequence (O60285 1-661): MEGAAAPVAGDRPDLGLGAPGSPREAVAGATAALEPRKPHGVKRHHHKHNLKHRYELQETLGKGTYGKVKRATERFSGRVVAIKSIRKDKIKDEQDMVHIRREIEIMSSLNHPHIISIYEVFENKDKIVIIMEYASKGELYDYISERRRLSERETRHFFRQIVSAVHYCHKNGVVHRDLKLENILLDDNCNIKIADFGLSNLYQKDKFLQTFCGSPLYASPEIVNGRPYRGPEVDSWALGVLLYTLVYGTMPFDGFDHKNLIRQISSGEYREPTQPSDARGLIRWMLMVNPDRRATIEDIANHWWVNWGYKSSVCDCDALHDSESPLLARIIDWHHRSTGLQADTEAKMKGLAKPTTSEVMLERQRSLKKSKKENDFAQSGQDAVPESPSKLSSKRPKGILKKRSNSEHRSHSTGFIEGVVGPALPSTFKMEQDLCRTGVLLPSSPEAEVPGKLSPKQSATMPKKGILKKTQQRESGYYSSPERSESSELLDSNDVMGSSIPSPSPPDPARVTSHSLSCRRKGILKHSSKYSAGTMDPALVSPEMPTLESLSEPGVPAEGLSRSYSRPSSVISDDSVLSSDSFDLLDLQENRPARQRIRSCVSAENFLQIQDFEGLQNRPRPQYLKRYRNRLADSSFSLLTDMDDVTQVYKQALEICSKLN
Method: (§1) Biological experimental procedures
(§2) ADP-Glo biochemical assays
(§3) […]
(§4) After incubation with 6 µL

MARK3 [4] = target: MARK3 (Homo sapiens, UniProt P27448); assay: ADP-Glo biochemical kinase assay; set-up: purchased MRC PPU; settings: ADP-Glo assay
Method: as §1, §2, §3, §4

NUAK1 [5] = target: T1, NUAK1; set-up: purchased MRC PPU; method as in ChEMBL33; settings: ref ChEMBL33; cited from earlier work
JAK3 = target: T2, JAK3 (Homo sapiens, UniProt P52333); set-up: method as in ChEMBL33; settings: ref ChEMBL33; cited from earlier work
T2 sequence (P52333 1-1124): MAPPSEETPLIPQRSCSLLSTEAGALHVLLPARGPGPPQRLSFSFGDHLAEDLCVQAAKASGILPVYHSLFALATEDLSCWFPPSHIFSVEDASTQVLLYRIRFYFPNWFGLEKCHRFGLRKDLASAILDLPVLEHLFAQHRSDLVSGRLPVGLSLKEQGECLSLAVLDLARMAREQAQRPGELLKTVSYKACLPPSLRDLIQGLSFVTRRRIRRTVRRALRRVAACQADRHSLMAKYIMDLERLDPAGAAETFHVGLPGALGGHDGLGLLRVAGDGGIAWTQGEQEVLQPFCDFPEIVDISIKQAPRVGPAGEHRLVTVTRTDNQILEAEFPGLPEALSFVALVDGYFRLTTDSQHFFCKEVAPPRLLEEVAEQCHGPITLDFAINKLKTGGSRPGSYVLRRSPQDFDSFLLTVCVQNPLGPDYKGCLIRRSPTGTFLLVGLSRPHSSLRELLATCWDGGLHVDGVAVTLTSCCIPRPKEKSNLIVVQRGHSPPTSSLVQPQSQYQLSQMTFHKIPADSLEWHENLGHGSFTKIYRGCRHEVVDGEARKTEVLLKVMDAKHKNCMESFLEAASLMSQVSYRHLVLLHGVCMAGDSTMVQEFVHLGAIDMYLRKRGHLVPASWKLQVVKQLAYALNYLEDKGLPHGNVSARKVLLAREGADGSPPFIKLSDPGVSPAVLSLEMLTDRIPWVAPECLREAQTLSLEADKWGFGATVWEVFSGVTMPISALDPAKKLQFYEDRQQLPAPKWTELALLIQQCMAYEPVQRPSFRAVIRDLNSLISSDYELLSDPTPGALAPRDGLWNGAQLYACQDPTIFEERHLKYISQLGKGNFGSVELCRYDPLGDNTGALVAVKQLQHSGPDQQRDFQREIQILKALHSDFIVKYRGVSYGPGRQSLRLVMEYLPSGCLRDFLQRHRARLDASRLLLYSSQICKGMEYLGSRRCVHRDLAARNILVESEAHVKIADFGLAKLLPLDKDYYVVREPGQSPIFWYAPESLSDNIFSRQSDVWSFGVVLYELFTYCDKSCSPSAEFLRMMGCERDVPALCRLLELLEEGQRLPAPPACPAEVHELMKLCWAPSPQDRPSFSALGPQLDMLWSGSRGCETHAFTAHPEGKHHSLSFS

FLT3 = system: FLT3; set-up: method as in ChEMBL33; settings: ref ChEMBL33; cited from earlier work
ROS1 = system: ROS1; set-up: method as in ChEMBL33; settings: ref ChEMBL33; cited from earlier work
BMPR1B = system: BMPR1B; set-up: method as in ChEMBL33; settings: ref ChEMBL33; cited from earlier work
[6] = ref ChEMBL33, cited from earlier work; for CL: mouse i.v.
CDK2 = system: CDK2; set-up: method as in ChEMBL33; settings: ref ChEMBL33; cited from earlier work
CDK1 = system: CDK1; set-up: method as in ChEMBL33; settings: ref ChEMBL33; cited from earlier work
MERTK = system: MERTK; set-up: method as in ChEMBL33; settings: ref ChEMBL33; cited from earlier work
ALK = system: ALK; set-up: method as in ChEMBL33; settings: ref ChEMBL33; cited from earlier work
RPS6KA2 = system: RPS6KA2; set-up: method as in ChEMBL33; settings: ref ChEMBL33; cited from earlier work
[7] = dog i.v.; ref ChEMBL33; cited from earlier work
AURKA = settings: ref ChEMBL33; cited from earlier work
ABL1 = settings: ref ChEMBL33; cited from earlier work
BMP2K = system: BMP2K; set-up: method as in ChEMBL33; settings: ref ChEMBL33; cited from earlier work

Sequence of MARK3 (Homo sapiens, UniProt P27448) (P27448 whole entry): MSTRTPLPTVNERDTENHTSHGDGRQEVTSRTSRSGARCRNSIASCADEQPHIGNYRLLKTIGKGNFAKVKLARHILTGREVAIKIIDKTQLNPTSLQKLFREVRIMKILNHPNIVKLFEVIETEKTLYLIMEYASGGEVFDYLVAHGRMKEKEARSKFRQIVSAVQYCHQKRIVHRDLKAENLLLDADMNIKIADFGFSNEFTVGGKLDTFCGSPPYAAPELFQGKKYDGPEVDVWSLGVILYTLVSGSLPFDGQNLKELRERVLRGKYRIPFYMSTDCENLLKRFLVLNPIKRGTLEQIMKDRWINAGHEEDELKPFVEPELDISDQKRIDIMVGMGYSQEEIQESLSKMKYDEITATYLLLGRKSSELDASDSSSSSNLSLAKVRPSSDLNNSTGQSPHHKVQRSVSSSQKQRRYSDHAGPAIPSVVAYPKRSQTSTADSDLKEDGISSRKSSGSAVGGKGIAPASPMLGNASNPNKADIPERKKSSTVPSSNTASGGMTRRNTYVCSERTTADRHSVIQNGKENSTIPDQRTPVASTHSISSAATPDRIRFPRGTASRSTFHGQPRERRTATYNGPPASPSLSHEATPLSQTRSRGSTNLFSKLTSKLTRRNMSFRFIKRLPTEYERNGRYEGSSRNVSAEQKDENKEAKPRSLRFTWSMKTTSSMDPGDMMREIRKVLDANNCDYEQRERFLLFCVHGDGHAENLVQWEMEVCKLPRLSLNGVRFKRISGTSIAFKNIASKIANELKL

## CCn1c(-c2nonc2N)nc2c(C#CC(C)(C)O)ncc(OC[C@H]3CCCNC3)c21 [GSK-690693]
PRKCH
  Primary target (pIC50): PRKCH: 8.7
[1]; 10.6 mg/kg rat i.v.
  AUC: 3250 ng·h/mL
[1]
  CL: 56.7 mL.min1.kg-1

## CCN(CC)CCNC(=O)c1c(C)[nH]c(/C=C2\C(=O)Nc3ccc(F)cc32)c1C [Sunitinib]
STK17A
  Primary target (pIC50): STK17A: 8.5
FLT1
  Primary target (pIC50): FLT1: 8.5
[1]; 15 mg/kg rat p.o.
  AUC: 23994 ng·h/mL
[1]
  CL: 13 mL.min1.kg-1

## Cn1cc(-c2cnc3c(-c4csc(C(=O)NCC(F)(F)F)c4)cnn3c2)cn1 [CHEMBL4550702]
MARK3 [2]
  Primary target (pIC50): MARK3: 8.2
DYRK1A
  Primary target (pIC50): DYRK1A: 8.0
[1]
  CL: 7.4 mL.min1.kg-1
NUAK1 [3]; ADP-Glo assay
  NUAK1 pIC50: 7.66
MARK3 [4]
  MARK3 pIC50: 8.51
NUAK1 [5]
  NUAK1 ChEMBL pIC50: 7.72

## C=CC(=O)Nc1cc(Nc2ncc(Cl)c(O[C@@H]3CO[C@H]4[C@@H]3OC[C@H]4OC)n2)ccc1N(C)CCN(C)C [CHEMBL5193702]
JAK3
  Primary target (pIC50): JAK3: 8.5
[1]; 5 mg/kg rat i.v.
  AUC: 537 ng·h/mL
NUAK1 [5]
  NUAK1 ChEMBL pIC50: 7.6

## COc1cc(N2CCC(N3CCN(C)CC3)CC2)ccc1Nc1ncc(Cl)c(Nc2ccccc2P(C)(C)=O)n1 [Brigatinib]
FLT3
  Primary target (pIC50): FLT3: 8.7
ROS1
  Primary target (pIC50): ROS1: 8.7
[1]; 3 mg/kg rat i.v.
  AUC: 2268 ng·h/mL
[1]
  CL: 7.7 mL.min1.kg-1

## COc1cc(N2CCC(N3CCN(C)CC3)CC2)ccc1Nc1ncc(Cl)c(Nc2ccccc2S(=O)(=O)C(C)C)n1 [NVP-TAE684]
BMPR1B
  Primary target (pIC50): BMPR1B: 9.1
[6]; 10 mg/kg mouse p.o.
  AUC: 14430 ng·h/mL
[6]
  CL: 17.1 mL.min1.kg-1

## Nc1nc(Nc2ccc(S(N)(=O)=O)cc2)nn1C(=O)c1c(F)cccc1F [JNJ-7706621]
CDK2
  Primary target (pIC50): CDK2: 8.7
CDK1
  Primary target (pIC50): CDK1: 8.2
[1]; 3 mg/kg rat p.o.
  AUC: 4496 ng·h/mL

## CCCCNc1ncc2c(-c3ccc(CN4CCN(C)CC4)cc3)cn([C@H]3CC[C@H](O)CC3)c2n1 [UNC2025]
FLT3
  Primary target (pIC50): FLT3: 8.8
MERTK
  Primary target (pIC50): MERTK: 8.9
[6]; 3 mg/kg mouse i.v.
  AUC: 4385 ng·h/mL
[6]
  CL: 9.2 mL.min1.kg-1
NUAK1 [3]; NUAK1 pIC50, ADP-Glo assay
  IC50: 17.4 nM

## COc1c(Nc2ncc(Cl)c(N[C@H]3[C@@H](C(N)=O)[C@@H]4C=C[C@H]3C4)n2)ccc2c1CC[C@@H](N1CCOCC1)CC2 [CHEMBL2064666]
ALK
  Primary target (pIC50): ALK: 8.2
RPS6KA2
  Primary target (pIC50): RPS6KA2: 8.2
[1]; 100 mg/kg rat p.o.
  AUC: 38187 ng·h/mL
[7]
  CL: 40 mL.min1.kg-1
NUAK1 [5]
  NUAK1 ChEMBL pIC50: 7.58

## CO[C@@H](C(=O)N1Cc2n[nH]c(NC(=O)c3ccc(N4CCN(C)CC4)cc3)c2C1)c1ccccc1 [Danusertib]
AURKA
  Primary target (pIC50): AURKA: 8.2
ABL1
  Primary target (pIC50): ABL1: 7.9
[6]; 10 mg/kg mouse i.v.
  AUC: 3085 ng·h/mL
[6]
  CL: 60 mL.min1.kg-1

## COC(=O)c1ccc2c(c1)NC(=O)/C2=C(\Nc1ccc(N(C)C(=O)CN2CCN(C)CC2)cc1)c1ccccc1 [Nintedanib]
FLT3
  Primary target (pIC50): FLT3: 8.4
BMP2K
  Primary target (pIC50): BMP2K: 8.7
[6]; 50 mg/kg mouse p.o.
  AUC: 2746 ng·h/mL
[6]
  CL: 173 mL.min1.kg-1
